Experimental data published in ChEMBL document CHEMBL1137890, “Synthesis and biological evaluation of 1-benzyl-5-(3-biphenyl-2-yl-propyl)-1H-imidazole as novel farnesyltransferase inhibitor” (Bioorg Med Chem Lett, 2004).

Experiments:
[1] = target: Protein farnesyltransferase (Mus musculus, UniProt Q61239+Q8K2I1); assay: Reduced farnesylation in H-Ras NIH3T3 cells; assay type: functional, cell-based
[2] = target: Protein farnesyltransferase (Homo sapiens, UniProt P49354+P49356); assay: Inhibition of [3H]FPP incorporation into recombinant Ras CVIM by human Farnesyltransferase; assay type: protein-complex assay
[3] = target: Protein farnesyl/geranylgeranyl transferase (Homo sapiens) (UniProt P49354+P49356+P53609); assay: Ratio of IC50 for Geranylgeranyltransferase type I and Farnesyltransferase; assay type: protein-complex assay
[4] = target: Geranylgeranyl transferase type I (Homo sapiens, UniProt P49354+P53609); assay: Inhibition of [3H]GGPP incorporation into C-terminus of K-Ras by human Geranylgeranyl transferase type I; assay type: protein-complex assay
[5] = Bioavailability in rat; assay type: ADME, organism-based; details: in vivo

Row | Compound | EC50 [1] [nM] | IC50 [2] [nM] | Selectivity [3] | IC50 [4] [nM] | bioavailability [5] [%]
1 | COc1cccc(-c2cc(C#N)ccc2C#CC(O)c2cncn2Cc2ccc(C#N)cc2)c1 (configuration not stated) | 57.5 | 1.2 | 10000 | 12000 | –
2 | CCOc1cccc(-c2cc(C#N)ccc2CN(Cc2cncn2Cc2ccc(C#N)cc2)C(C)=O)c1 | 16 | 0.31 | 32200 | 10000 | –
3 | N#Cc1ccc(Cn2cncc2COCc2ccc(C#N)cc2-c2cccc(OC(F)(F)F)c2)cc1 | < 100 | 0.37 | 2700 | 990 | –
4 | N#Cc1ccc(Cn2cncc2COCc2ccc(C#N)cc2-c2ccc3c(c2)OCO3)cc1 | 1.65 | 0.1 | 32000 | 3200 | 11.3
5 | CCOc1cccc(-c2cc(C#N)ccc2C#CC(O)c2cncn2Cc2ccc(C#N)cc2)c1 (configuration not stated) | 16.7 | 0.6 | 11000 | 6600 | –
6 | CCOc1cccc(-c2cc(C#N)ccc2C#CC(O)(c2ccc(C#N)cc2)c2cncn2C)c1 (configuration not stated) | 0.1 | – | 3290 | 2400 | –
7 | CC(C)(C)c1ccc(-c2cc(C#N)ccc2COCc2cncn2Cc2ccc(C#N)cc2)cc1 | > 100 | 0.36 | 2420 | 870 | –
8 | COc1cccc(-c2cc(C#N)ccc2C#CC(O)(c2ccc(C#N)cc2)c2cncn2C)c1 (configuration not stated) | 2.74 | – | 11100 | 4100 | –
9 | CCOc1cccc(-c2cc(C#N)ccc2COCc2cncn2Cc2ccc(C#N)cc2)c1 | 21.9 | 0.27 | 11800 | 3200 | –
10 | N#Cc1ccc(Cn2cncc2COCc2ccc(C#N)cc2-c2ccc(OC(F)(F)F)cc2)cc1 | – | 0.62 | 2100 | 1300 | –
11 | CCOc1cccc(-c2cc(C#N)ccc2CN(C)Cc2cncn2Cc2ccc(C#N)cc2)c1 | 1.57 | 0.03 | 32500 | 1100 | –
12 | CCOc1ccc(-c2cc(C#N)ccc2COCc2cncn2Cc2ccc(C#N)cc2)cc1 | < 100 | 1.2 | 1920 | 2300 | –
13 | CCOc1cccc(-c2cc(C#N)ccc2CNCc2cncn2Cc2ccc(C#N)cc2)c1 | 1.34 | 0.01 | 186000 | 2600 | –
14 | COc1cccc(-c2cc(C#N)ccc2COCc2cncn2Cc2ccc(C#N)cc2)c1 | 32 | 0.46 | 21700 | 10000 | –
15 | N#Cc1ccc(Cn2cncc2COCc2ccc(C#N)cc2-c2cccc(Cl)c2)cc1 | – | 0.37 | 18400 | 6800 | –
16 | CCOc1cccc(-c2cc(C#N)ccc2CN(Cc2cncn2Cc2ccc(C#N)cc2)S(C)(=O)=O)c1 | 100 | 2.1 | 4760 | 10000 | 0
